The source of these data is publication PMC11152041, “Tricarbonyl rhenium(I) complexes with 8-hydroxyquinolines: structural, chemical, antibacterial, and anticancer characteristics” (RSC Advances, 2024).

For data set [1], the system named is SKOV-3 cells. Kind of data set: MTT cytotoxicity assay. It counts as cell-based, human. Conditions: MTT, read-out: IC50 ± SD. Here is the method: (§1) The cytotoxicities for studied compounds were evaluated against leukemia cells (HL-60), as well as ovarian (SKOV-3), prostate (PC-3), and breast (MCF-7) cancer cell lines. The potential selectivity of these compounds towards cancer cells was assessed by determination of their cytotoxicities towards breast non-cancerous cells (MCF-10A). For comparison, cisplatin was added to the cytotoxicity assays.
(§2) Bacterial strains and cell lines were obtained from the American Type Culture Collection (ATCC).[59] […] Antimicrobial activity was tested in Müeller Hinton (MH) II broth (Becton Dickinson). For anticancer activity assay, the following reagents from Merk were used: 3-(4,5-dimethylthiazol-2-yl)-2,5-diphenyltetrazolium bromide (MTT), sodium dodecyl sulfate (SDS) and HCl. The solubilized formazan product was spectrophotometrically quantified in a Power Wave XS (Bio Tek, Winooski, VT, USA) microplate reader. The HL-60 and PC-3 cells were grown in RPMI-1640 medium with stable glutamine (Biowest) supplemented with 10% (v/v) of heat-inactivated fetal bovine serum (FBS, Biowest) and 1% (v/v) of antibiotic–antimycotic solution (Biowest). The SKOV-3 cells were grown in McCoy's 5A medium with L-glutamine (Biowest) supplemented with 10% (v/v) heat-inactivated FBS, and 1% (v/v) antibiotic–antimycotic solution. The MCF-7 cells were grown in Eagle's MEM (Minimal Essential Medium) medium with stable glutamine (Biowest), supplemented with 10% (v/v) heat-inactivated FBS 1% (v/v) MEM non-essential amino acids (Biowest), 1% (v/v) antibiotic–antimycotic solution, and 1 mM sodium pyruvate (Merck). The MCF-10A cells were grown in Ham's F-12K (Kaighn's) Medium with stable glutamine (Gibco) supplemented with 5% (v/v) heat-inactivated FBS, 1% (v/v) MEM non-essential amino acids, 1% (v/v) antibiotic–antimycotic solution, 5 μg mL^−1 insulin, 0.04 μg mL^−1 hydrocortisone (Merck), and 15 ng mL^−1 human Epidermal Growth Factor (hEGF, PeproTech).
(§3) The cells were cultured in 96-well plates and incubated with the tested compound for 24 h and 48 h. All experiments were performed in exponentially growing cultures. The 0.03 M solutions of the compounds in DMSO were appropriately diluted using culture media. The maximal final concentration of DMSO in each well was 0.1%. The cytotoxicity of the compounds was measured by determining cell viability with a colorimetric test based on 3-(4,5-dimethylthiazol-2-yl)-2,5-diphenyltetrazolium bromide (MTT). MTT stock solution was added to each well to a final concentration of 0.5 mg mL^−1 and incubated for 4 h at 37 °C; following formazan crystals were dissolved by the addition of sodium dodecyl sulfate (SDS) solution (10% SDS in 0.001 M HCl). MTT and SDS were added directly to the cell culture. The compound's IC50 values (concentration required to reduce the viability of cells by 50% compared with the control cells) were calculated from the data obtained with the MTT assay.
(In general: Tetrazolium assays rely on reduction of a dye to a coloured formazan, in cell work by metabolically active cells.)

The test system of data set [2] is PC-3 cells. Description: MTT cytotoxicity assay. Format: cell-based, human. Conditions: for IC50: MTT, read-out: IC50 ± SD. The procedure:
as §1, §2, §3

In data set [3] the test system is HL-60 cells. Kind of data set: MTT cytotoxicity assay. It counts as cell-based, human. As to conditions: MTT, read-out: IC50 ± SD. Here is the method: as §1, §2, §3
The test system of data set [4] is MCF-7 cells. Kind of data set: MTT cytotoxicity assay. Format: cell-based, human. Conditions: MTT, read-out: IC50 ± SD. The procedure:
as §1, §2, §3

Data set [5] has as its system P. aeruginosa ATCC27853. Kind of data set: Broth microdilution MIC/MBC (ISO 20776-1). Format: cell-based, Pseudomonas aeruginosa. As to conditions: for MBC: P. aeruginosa ATCC27853, >99.99% reduction of growth; for MIC: P. aeruginosa ATCC27853, MH II broth, 35 °C, 24 h. Here is the method:
as §2
(§4) The in vitro antibacterial activity was determined according to ISO 20776-1.[88] Among the tested microorganisms were Gram-negative rods, E. coli ATCC25922 and P. aeruginosa ATCC27853, and Gram-positive cocci, S. aureus ATCC29213 and E. faecalis ATCC29212. The selected bacterial species represented the most common etiologic agents of human infections and are used for quality control of antimicrobial susceptibility testing.[89] The test procedure included the determination of MICs and MBCs of complexes and their free ligands. MIC and MBC determinations of ciprofloxacin, as the reference antibiotic, were also performed. All compounds were dissolved in DMSO to reach the maximum 512 mg L^−1 concentration. […] The assay consisted of preparing 2-fold dilutions of the substances in a liquid growth medium MH II and inoculating them with a standardized suspension of microorganisms at a McFarland density of 0.5 (≈10^8 CFU mL^−1). The culture plates were incubated at 35 °C for 24 h. The lowest concentration of the compound inhibiting visible bacterial growth was specified as MIC, and the concentration that reduced bacterial growth by >99.99% after counting live bacteria on the plates compared to the positive control was defined as MBC.
(In general: Broth dilution looks for growth in wells or tubes with falling amounts of substance.)

The test system of data set [6] is E. coli ATCC25922. Description: Broth microdilution MIC/MBC (ISO 20776-1). Format: cell-based, Escherichia coli. As to conditions: for MBC: E. coli ATCC25922, >99.99% reduction of growth; for MIC: E. coli ATCC25922, MH II broth, 35 °C, 24 h. The procedure:
as §2, §4

Data set [7] deals with E. faecalis ATCC29212. Description: Broth microdilution MIC/MBC (ISO 20776-1). It counts as cell-based, Enterococcus faecalis. As to conditions: for MBC: E. faecalis ATCC29212, >99.99% reduction of growth; for MIC: E. faecalis ATCC29212, MH II broth, 35 °C, 24 h. The procedure: as §2, §4
Data set [8] deals with S. aureus ATCC29213. Kind of data set: Broth microdilution MIC/MBC (ISO 20776-1). Format: cell-based, Staphylococcus aureus. Conditions: for MBC: S. aureus ATCC29213, >99.99% reduction of growth; for MIC: S. aureus ATCC29213, MH II broth, 35 °C, 24 h. The procedure: as §2, §4
Data set [9] relates to MCF-10A cells. Kind of data set: MTT cytotoxicity assay. As to conditions: for IC50: read-out: IC50 ± SD, MCF-10A (non-cancerous), MTT, * precipitation of the complex; for solubility in the cytotoxicity assay: MCF-10A cell line culture medium. The procedure: as §1, §2, §3

Read-outs that look alike come from different tables or passages of the source. A value given as a limit tells only on which side of the number the result lay.

For `Cc1ncc[nH]1.[C-]#[O+].[C-]#[O+].[C-]#[O+].[Re][O]c1cccc2cccnc12` [complex 2, [Re(CO)3(Q)MeHim]], the IC50 in data set [1] (SKOV-3, 24 h) is more than 100 µM; in data set [1] (SKOV-3, 48 h), 44 ± 1 µM; in [2] (PC-3, 24 h), 34 ± 3 µM; in [2] (PC-3, 48 h), 35 ± 2 µM; in data set [3] (HL-60, 24 h), 10 ± 1 µM; in data set [3] (HL-60, 48 h) it was 9 ± 1 µM. In addition, the 50% inhibitory concentration (IC50) in [4] (MCF-7, 24 h) was 36 ± 3 µM; in data set [4] (MCF-7, 48 h), 30 ± 1 µM; in data set [9] (24 h), 31 ± 4 µM; in data set [9] (48 h), 29 ± 5 µM. Also, the MBC was >512/>512 mg L^−1 in data set [5], >512/>512 mg L^−1 in [6], more than 512 µg/mL in data set [7] and more than 512 mg/L in data set [8]. For the same molecule, the MIC in [5] was >512/>512 mg L^−1; in data set [6], >512/>512 mg L^−1; in data set [7], 128 µg/mL; in data set [8] it was 256 mg/L.
As for `[C-]#[O+].[C-]#[O+].[C-]#[O+].[Re][O]c1cccc2cccnc12.c1ccc(-c2ccn[nH]2)cc1` [complex 4, [Re(CO)3(Q)HPhpz]·0.5CH3CN], the IC50 in data set [1] (SKOV-3, 24 h) is more than 100 µM; in data set [1] (SKOV-3, 48 h), 81 ± 9 µM; in data set [2] (PC-3, 24 h), 42 ± 6 µM; in data set [2] (PC-3, 48 h), 27 ± 3 µM; in [3] (HL-60, 24 h), 9 ± 1 µM; in data set [3] (HL-60, 48 h) it was 9 ± 1 µM. The IC50 was 73 ± 3 µM in data set [4] (MCF-7, 24 h); 50 ± 3 µM in data set [4] (MCF-7, 48 h); 50 ± 5 µM in [9] (24 h); 36 ± 4 µM in data set [9] (48 h). For the same molecule, the MBC is >512/>512 mg L^−1 in data set [5], >512/>512 mg L^−1 in data set [6], more than 512 µg/mL in data set [7] and more than 512 mg/L in data set [8]. The minimum inhibitory concentration (MIC) in data set [5] was >512/>512 mg L^−1; in data set [6] it was >512/>512 mg L^−1; in [7], 32 µg/mL; in data set [8] it was 256 mg/L.
Consider `Cc1ccc2cccc([O][Re])c2n1.[C-]#[O+].[C-]#[O+].[C-]#[O+].c1c[nH]cn1` [complex 5, [Re(CO)3(MeQ)Him]], for which the 50% inhibitory concentration (IC50) in data set [1] (SKOV-3, 24 h) is 31 ± 5 µM; in [1] (SKOV-3, 48 h), 26 ± 11 µM; in data set [2] (PC-3, 24 h), 11 ± 3 µM; in data set [2] (PC-3, 48 h) it was 28 ± 6 µM; in data set [3] (HL-60, 24 h) it was 11 ± 2 µM; in data set [3] (HL-60, 48 h), 4 ± 1 µM. Moreover, the IC50 in data set [4] (MCF-7, 24 h) is 47 ± 7 µM; in data set [4] (MCF-7, 48 h), 43 ± 6 µM; in data set [9] (24 h), 50 ± 2 µM; in data set [9] (48 h), more than 50 µM. Moreover, the “times lower effect after 48 h than after 24 h” value in data set [2] (PC-3, IC50 48 h versus 24 h) is listed as “about 2.5 times”. For the same molecule, the MBC in [5] is 64 mg/L; in data set [6], 16/16 mg L^−1; in data set [7], more than 512 µg/mL; in [8] it was 512 mg/L. The MIC in [5] was 16 mg/L; in data set [6], 16/16 mg L^−1; in data set [7], 32 µg/mL; in [8], 16 mg/L. Besides, the “fold better activity than the free MeHQ ligand” value in [5] (P. aeruginosa, MIC/MBC compared with MeHQ) amounted to 4 fold. For the same molecule, the “fold decline of MBC compared to the free ligand” value in [6] (E. coli, compared with MeHQ) is listed as 5 fold. In data set [7] (E. faecalis, compared with MeHQ), the “fold increase of MBC compared to the free ligand” value was 4 fold. Besides, the “solubility in the cytotoxicity assay” value in data set [9] was “precipitated at higher concentrations”.
As for `Cc1ccc2cccc([O][Re])c2n1.Cc1ncc[nH]1.[C-]#[O+].[C-]#[O+].[C-]#[O+]` [complex 6, [Re(CO)3(MeQ)MeHim]], the IC50 was determined as 32 ± 7 µM in data set [1] (SKOV-3, 24 h); 30 ± 9 µM in data set [1] (SKOV-3, 48 h); 54 ± 7 µM in [2] (PC-3, 24 h); 22 ± 5 µM in data set [2] (PC-3, 48 h); 14 ± 1 µM in [3] (HL-60, 24 h); 9 ± 1 µM in data set [3] (HL-60, 48 h). In addition, the IC50 stood at 44 ± 1 µM in data set [4] (MCF-7, 24 h); 35 ± 6 µM in data set [4] (MCF-7, 48 h); 66 ± 1 µM in data set [9] (24 h); 35 ± 1 µM in [9] (48 h). The MBC is >512/>512 mg L^−1 in data set [5], >512/>512 mg L^−1 in data set [6], 256 µg/mL in data set [7] and 512 mg/L in [8]. The MIC in [5] was >512/>512 mg L^−1; in data set [6], >512/>512 mg L^−1; in [7], 64 µg/mL; in data set [8] it was 64 mg/L.
In the case of `Cc1cc(C)[nH]n1.Cc1ccc2cccc([O][Re])c2n1.[C-]#[O+].[C-]#[O+].[C-]#[O+]` [complex 7, [Re(CO)3(MeQ)Hdmpz]], the IC50 in data set [1] (SKOV-3, 24 h) was found to be 29 ± 5 µM; in data set [1] (SKOV-3, 48 h), 26 ± 5 µM; in [2] (PC-3, 24 h), 16 ± 2 µM; in data set [2] (PC-3, 48 h), 18 ± 4 µM; in [3] (HL-60, 24 h) it was 13 ± 1 µM; in data set [3] (HL-60, 48 h), 12 ± 1 µM. Also, the IC50 in data set [4] (MCF-7, 24 h) was 27 ± 8 µM; in data set [4] (MCF-7, 48 h) it was 19 ± 4 µM; in [9] (24 h) it was more than 25 µM; in data set [9] (48 h), more than 25 µM. Moreover, the MBC in [5] is >512/>512 mg L^−1; in data set [6] it was >512/>512 mg L^−1; in data set [7], more than 512 µg/mL; in data set [8] it was >512/>512 mg L^−1. For the same molecule, the MIC in data set [5] was >512/>512 mg L^−1; in data set [6], >512/>512 mg L^−1; in [7] it was 128 µg/mL; in data set [8] it was >512/>512 mg L^−1. The “solubility in the cytotoxicity assay” value in [9] is listed as “precipitated at higher concentrations”.

By IC50 is commonly meant the concentration at which inhibition is half-maximal. One may read the MBC as the lowest tested concentration that kills the bacteria rather than only halting them. A low value points to greater bactericidal potency. For orientation: MIC means the least concentration at which growth counts as inhibited. Read a low MIC as a more susceptible organism.
